Measured values from PubChem BioAssay AID1963959 (Molecular Pharmacology Branch, DTP, NCI, 2024).

Test system: T-47D spheroids with HUVEC/MSC, viability
Test: Anticancer human tumor T-47D cell line growth inhibition [PI3K];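 also: spheroids exposed to agents for seven days before reading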;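 as to viability, T/C: percent of DMSO vehicle control luminescence so 100% = untreated growth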
Settings: for viability, T/C: stronger effect = lower value
Procedure, shortened: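 Agents were dosed from a top concentration near clinical Cmax (otherwise 10 microM) in half-log decrements, alone or combined with PI3K inhibitors. The spheroids contain tumor cells plus endothelial (HUVEC) and MSC stroma; viability is measured.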

[1] = curve of first compound, second compound 0.0316 µM
[2] = curve of first compound, second compound 0.1 µM
[3] = curve of first compound, second compound 0.316 µM
[4] = curve of first compound, second compound 1 µM
[5] = second compound 0.0316 µM, first compound 0.0316 µM
[6] = second compound 0.0316 µM, first compound 0.1 µM
[7] = second compound 0.0316 µM, first compound 0.316 µM
[8] = second compound 0.0316 µM, first compound 1 µM
[9] = second compound 0.0316 µM, first compound 3.16 µM
[10] = second compound 0.0316 µM, first compound 10 µM
[11] = second compound 0.1 µM, first compound 0.0316 µM
[12] = second compound 0.1 µM, first compound 0.1 µM
[13] = second compound 0.1 µM, first compound 0.316 µM
[14] = second compound 0.1 µM, first compound 1 µM
[15] = second compound 0.1 µM, first compound 3.16 µM
[16] = second compound 0.1 µM, first compound 10 µM
[17] = second compound 0.316 µM, first compound 0.0316 µM
[18] = second compound 0.316 µM, first compound 0.1 µM
[19] = second compound 0.316 µM, first compound 0.316 µM
[20] = second compound 0.316 µM, first compound 1 µM
[21] = second compound 0.316 µM, first compound 3.16 µM
[22] = second compound 0.316 µM, first compound 10 µM
[23] = second compound 1 µM, first compound 0.0316 µM
[24] = second compound 1 µM, first compound 0.1 µM
[25] = second compound 1 µM, first compound 0.316 µM
[26] = second compound 1 µM, first compound 1 µM
[27] = second compound 1 µM, first compound 3.16 µM
[28] = second compound 1 µM, first compound 10 µM
[29] = curve of first compound, second compound 0.00316 µM
[30] = curve of first compound, second compound 0.01 µM
[31] = second compound 0.00316 µM, first compound 0.0316 µM
[32] = second compound 0.00316 µM, first compound 0.1 µM
[33] = second compound 0.01 µM, first compound 0.0316 µM
[34] = second compound 0.01 µM, first compound 0.1 µM

With `C=CC(=O)N1CCN(c2nc(=O)n(-c3c(C)ccnc3C(C)C)c3nc(-c4c(O)cccc4F)c(F)cc23)C(C)C1` (stereo not given) + CC(Nc1ncnc2nc[nH]c12)c1cc2cccc(Cl)c2c(=O)n1-c1ccccc1 the IC50 [1] was > 10 µM, the IC50 [2] was > 10 µM and the IC50 [3] was > 10 µM. The IC50 [4] was > 10 µM, the IC50 (curve of first compound, second compound 3.16 µM) was > 10 µM and the IC50 (curve of first compound, second compound 10 µM) was > 10 µM. The viability, T/C [5] was 98.2%, the viability, T/C [6] was 80.2% and the viability, T/C [7] was 93.8%. The viability, T/C [8] was 92.8%, the viability, T/C [9] was 105% and the viability, T/C [10] was 112%. It also gave a viability, T/C [11] of 121%, a viability, T/C [12] of 73% and a viability, T/C [13] of 90.1%. It also gave a viability, T/C [14] of 86.4%, a viability, T/C [15] of 115% and a viability, T/C [16] of 139%. The viability, T/C [17] was 107%, the viability, T/C [18] was 110% and the viability, T/C [19] was 93.6%. For the same molecule, the viability, T/C [20] was 85.3%, the viability, T/C [21] was 89.6% and the viability, T/C [22] was 117%. The viability, T/C [23] was 74.3%, the viability, T/C [24] was 89.2% and the viability, T/C [25] was 88.5%. The viability, T/C [26] was 98.4%, the viability, T/C [27] was 118% and the viability, T/C [28] was 115%. The viability, T/C (second compound 3.16 µM, first compound 0.0316 µM) was 75.5%, the viability, T/C (second compound 3.16 µM, first compound 0.1 µM) was 92.3% and the viability, T/C (second compound 3.16 µM, first compound 0.316 µM) was 94%. The viability, T/C (second compound 3.16 µM, first compound 1 µM) was 94.1%, the viability, T/C (second compound 3.16 µM, first compound 3.16 µM) was 107% and the viability, T/C (second compound 3.16 µM, first compound 10 µM) was 122%. The viability, T/C (second compound 10 µM, first compound 0.0316 µM) was 100%, the viability, T/C (second compound 10 µM, first compound 0.1 µM) was 92.5% and the viability, T/C (second compound 10 µM, first compound 0.316 µM) was 94%. For the same molecule, the viability, T/C (second compound 10 µM, first compound 1 µM) was 112%, the viability, T/C (second compound 10 µM, first compound 3.16 µM) was 106% and the viability, T/C (second compound 10 µM, first compound 10 µM) was 113%.

With `C#Cc1c(F)ccc2cc(O)cc(-c3ncc4c(N5CC6CCC(C5)N6)nc(OCC56CCCN5CC(F)C6)nc4c3F)c12` (stereo not given) the viability, T/C (compound 0.1 µM) was 99.3% [middle of 4 runs], the viability, T/C (compound 3.16 µM) was 98.4% [middle of 4 runs] and the viability, T/C (compound 10 µM) was 96.3% [middle of 4 runs]. For the same molecule, the IC50 (curve of compound) was > 10 µM.

`CC(Cn1ccc(-c2ccc(C#N)c(Cl)c2)n1)NC(=O)c1cc(C(C)O)[nH]n1` (stereo not given) + CC(Nc1ccc2c(c1)OCCn1cc(N3C(=O)OCC3C(F)F)nc1-2)C(N)=O was tested, and the IC50 [29] was > 10 µM, the IC50 [30] was > 10 µM and the IC50 [1] was > 10 µM. The IC50 [2] was > 10 µM, the IC50 [3] was > 10 µM and the IC50 [4] was 0.25 µM. It also gave a viability, T/C [31] of 92.5%, a viability, T/C [32] of 91.2% and a viability, T/C (second compound 0.00316 µM, first compound 0.316 µM) of 83.2%. It also gave a viability, T/C (second compound 0.00316 µM, first compound 1 µM) of 79.1%, a viability, T/C (second compound 0.00316 µM, first compound 3.16 µM) of 88.5% and a viability, T/C (second compound 0.00316 µM, first compound 10 µM) of 59.3%. The viability, T/C [33] was 114%, the viability, T/C [34] was 85.7% and the viability, T/C (second compound 0.01 µM, first compound 0.316 µM) was 92.1%. It also gave a viability, T/C (second compound 0.01 µM, first compound 1 µM) of 73.5%, a viability, T/C (second compound 0.01 µM, first compound 3.16 µM) of 92.2% and a viability, T/C (second compound 0.01 µM, first compound 10 µM) of 63.2%. It also gave a viability, T/C [5] of 125%, a viability, T/C [6] of 98% and a viability, T/C [7] of 76.2%. For the same molecule, the viability, T/C [8] was 83.2%, the viability, T/C [9] was 90.6% and the viability, T/C [10] was 62.7%. For the same molecule, the viability, T/C [11] was 83.1%, the viability, T/C [12] was 76.5% and the viability, T/C [13] was 76.2%. It also gave a viability, T/C [14] of 72.1%, a viability, T/C [15] of 87.7% and a viability, T/C [16] of 67.2%. For the same molecule, the viability, T/C [17] was 65.8%, the viability, T/C [18] was 65.7% and the viability, T/C [19] was 55.2%. It also gave a viability, T/C [20] of 57.3%, a viability, T/C [21] of 60.2% and a viability, T/C [22] of 53.5%. The viability, T/C [23] was 87.2%, the viability, T/C [24] was 56.4% and the viability, T/C [25] was 46.8%. The viability, T/C [26] was 46.1%, the viability, T/C [27] was 54.7% and the viability, T/C [28] was 41.4%.

With `CC(=O)c1c(C)c2cnc(Nc3ccc(N4CCNCC4)cn3)nc2n(C2CCCC2)c1=O` + COc1c(OCCCN2CCOCC2)ccc2c3n(c(=NC(=O)c4cnc(N)nc4)nc12)CCN3 the IC50 [29] was > 0.1 µM, the IC50 [30] was > 0.1 µM and the IC50 [1] was 0.0397 µM. The IC50 [2] was < 0.000316 µM, the IC50 [3] was < 0.000316 µM and the IC50 [4] was < 0.000316 µM. For the same molecule, the viability, T/C (second compound 0.00316 µM, first compound 0.000316 µM) was 120%, the viability, T/C (second compound 0.00316 µM, first compound 0.001 µM) was 118% and the viability, T/C (second compound 0.00316 µM, first compound 0.00316 µM) was 95.3%. The viability, T/C (second compound 0.00316 µM, first compound 0.01 µM) was 95.6%, the viability, T/C [31] was 80.5% and the viability, T/C [32] was 85%. The viability, T/C (second compound 0.01 µM, first compound 0.000316 µM) was 89.3%, the viability, T/C (second compound 0.01 µM, first compound 0.001 µM) was 104% and the viability, T/C (second compound 0.01 µM, first compound 0.00316 µM) was 95.5%. It also gave a viability, T/C (second compound 0.01 µM, first compound 0.01 µM) of 83.4%, a viability, T/C [33] of 84.3% and a viability, T/C [34] of 74.2%. It also gave a viability, T/C (second compound 0.0316 µM, first compound 0.000316 µM) of 71.3%, a viability, T/C (second compound 0.0316 µM, first compound 0.001 µM) of 64.8% and a viability, T/C (second compound 0.0316 µM, first compound 0.00316 µM) of 74.2%. It also gave a viability, T/C (second compound 0.0316 µM, first compound 0.01 µM) of 68.3%, a viability, T/C [5] of 51.8% and a viability, T/C [6] of 42.7%. It also gave a viability, T/C (second compound 0.1 µM, first compound 0.000316 µM) of 35.3%, a viability, T/C (second compound 0.1 µM, first compound 0.001 µM) of 42.8% and a viability, T/C (second compound 0.1 µM, first compound 0.00316 µM) of 34%. For the same molecule, the viability, T/C (second compound 0.1 µM, first compound 0.01 µM) was 32.9%, the viability, T/C [11] was 26.6% and the viability, T/C [12] was 27.1%. For the same molecule, the viability, T/C (second compound 0.316 µM, first compound 0.000316 µM) was 14.5%, the viability, T/C (second compound 0.316 µM, first compound 0.001 µM) was 17.1% and the viability, T/C (second compound 0.316 µM, first compound 0.00316 µM) was 19.7%. The viability, T/C (second compound 0.316 µM, first compound 0.01 µM) was 13.2%, the viability, T/C [17] was 15% and the viability, T/C [18] was 13.6%. It also gave a viability, T/C (second compound 1 µM, first compound 0.000316 µM) of 5.84%, a viability, T/C (second compound 1 µM, first compound 0.001 µM) of 7.18% and a viability, T/C (second compound 1 µM, first compound 0.00316 µM) of 7.6%. For the same molecule, the viability, T/C (second compound 1 µM, first compound 0.01 µM) was 5.71%, the viability, T/C [23] was 7.91% and the viability, T/C [24] was 6.26%.
